Test results taken from patent US20150252048A1, “SUBSTITUTED N-(3-PYRIMIDIN-4-YL)PHENYL)ACRYLAMIDE ANALOGS AS TYROSINE RECEPTOR KINASE BTK INHIBITORS” (UNIVERSITY OF UTAH RESEARCH FOUNDATION, priority 2012, published 2015).
Read-outs that look alike come from different tables or passages of the source.

What was measured:
Plasma stability assay = assay type: in vitro ADME; parameters: half-life: dose or concentration left out as unconfirmed
Method: The representative compound, compound 3, was also assessed in a plasma stability assay. Briefly, the compound was present at a concentration […] in plasma from three mammalian species (human, rat, and mouse). The concentration of intact drug (i.e. unmodified drug) at the indicated time points was determined using a LC-MS/MS assay. The data are consistent with good drug stability under the conditions tested.

BTK = BTK (Homo sapiens, UniProt Q06187); test: BTK kinase assay: time resolved-FRET (HTRF) assay; assay type: biochemical; parameters: recombinant full-length human BTK kinase with a (His)6 tag; (His)6; purchased Invitrogen Corporation, Carlsbad, Calif; conditions: 10 nM BTK, 60 μM ATP, 1 μM substrate
Chain of BTK (Q06187 whole entry): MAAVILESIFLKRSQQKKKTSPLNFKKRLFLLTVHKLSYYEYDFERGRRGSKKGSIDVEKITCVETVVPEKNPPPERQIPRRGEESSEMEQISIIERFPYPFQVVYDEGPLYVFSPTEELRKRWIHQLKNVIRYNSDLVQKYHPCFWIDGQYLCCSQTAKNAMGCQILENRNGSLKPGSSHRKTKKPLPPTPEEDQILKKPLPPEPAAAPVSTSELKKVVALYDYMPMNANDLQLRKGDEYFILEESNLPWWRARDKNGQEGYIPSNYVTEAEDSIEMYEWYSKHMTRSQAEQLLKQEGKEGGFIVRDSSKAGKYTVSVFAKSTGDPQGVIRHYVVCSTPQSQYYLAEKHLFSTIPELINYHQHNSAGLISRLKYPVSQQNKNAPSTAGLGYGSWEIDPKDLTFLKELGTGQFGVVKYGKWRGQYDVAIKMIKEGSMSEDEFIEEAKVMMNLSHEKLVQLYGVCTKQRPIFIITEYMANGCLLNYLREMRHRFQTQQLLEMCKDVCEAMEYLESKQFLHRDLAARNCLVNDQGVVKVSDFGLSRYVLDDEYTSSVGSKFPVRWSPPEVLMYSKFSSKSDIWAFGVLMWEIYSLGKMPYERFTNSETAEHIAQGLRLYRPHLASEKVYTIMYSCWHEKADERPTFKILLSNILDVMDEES
Method: Activity of compounds was routinely confirmed using a secondary assay as described herein. The secondary assay was a time resolved-FRET kinase assay. Test compound are diluted to desired concentrations in kinase reaction buffer and briefly incubated with BTK kinase (as described above; Invitrogen). The reaction is initiated by the addition of ATP and enzyme substrate, HTRF® KinEASE™-TK Substrate-biotin (Cisbio US, Bedford, Mass.). The composition of the reaction (10 μl) was: 1% v/v DMSO, 10 nM BTK, 60 μM ATP, and 1 μM substrate. After incubation at room temperature for 60 min, the enzyme reaction is stopped by EDTA-containing buffer, which also contains europium-labeled (Eu^3+-Cryptate) anti-phosphotyrosine antibody (Cisbio) and Streptavidin-XL665 (Cisbio). The europium-labeled antibody generates a time-resolved FRET signal with the Stepavidin-XL665, which binds to the biotinylated TK substrate through the streptavidin conjugate when the substrate is phosphorylated. After one hour incubation at room temperature, fluoresence was measured with excitation of 320 nm and dual emission of 615 and 665 nm on an EnVision microplate reader. Signal is expressed in terms of a TR-FRET ratio (665:615).
IC50 values are determined using GraphPad Prism 5 software. The data were entered as an X-Y plot into the software as percent inhibition for each concentration of the drug. The concentration values of the drug were log transformed and the nonlinear regression was carried out using the “sigmoidal dose-response (variable slope)” option within the GraphPad software to model the data and calculate IC50 values. The IC50 values reported are the concentration of drug at which 50% inhibition was reached.
Activity (IC50) was determined in the BTK assays describe herein below, i.e. either the ADP generation assay and/or the time-resolved FRET assay, and the data are shown in Table III. The compound number corresponds to the compound numbers used in Table I. In the table below, “ADP Assay” refers to the assay which measures production of ADP resulting from use of ATP by the kinase; and “HTRF Assay” refers to the time resolved-FRET kinase assay described in the examples. Multiple values in a given column indicate the results of more than one assay for the given compound. Representative data of the type used to determine the IC50 values for the ADP assay in Table III are shown in FIG. 8 for compounds 3, 4, and 5.

HERG channel = biological target: T1, HERG channel (Homo sapiens, UniProt Q12809); test: Predictor hERG Fluorescence Polarization Assay; assay type: binding; conditions: membrane preparation with overexpressed HERG channels, 10-point, duplicate
T1 construct: purchased Invitrogen; host or cells: membrane preparation with overexpressed HERG channels
T1 sequence (Q12809 whole entry): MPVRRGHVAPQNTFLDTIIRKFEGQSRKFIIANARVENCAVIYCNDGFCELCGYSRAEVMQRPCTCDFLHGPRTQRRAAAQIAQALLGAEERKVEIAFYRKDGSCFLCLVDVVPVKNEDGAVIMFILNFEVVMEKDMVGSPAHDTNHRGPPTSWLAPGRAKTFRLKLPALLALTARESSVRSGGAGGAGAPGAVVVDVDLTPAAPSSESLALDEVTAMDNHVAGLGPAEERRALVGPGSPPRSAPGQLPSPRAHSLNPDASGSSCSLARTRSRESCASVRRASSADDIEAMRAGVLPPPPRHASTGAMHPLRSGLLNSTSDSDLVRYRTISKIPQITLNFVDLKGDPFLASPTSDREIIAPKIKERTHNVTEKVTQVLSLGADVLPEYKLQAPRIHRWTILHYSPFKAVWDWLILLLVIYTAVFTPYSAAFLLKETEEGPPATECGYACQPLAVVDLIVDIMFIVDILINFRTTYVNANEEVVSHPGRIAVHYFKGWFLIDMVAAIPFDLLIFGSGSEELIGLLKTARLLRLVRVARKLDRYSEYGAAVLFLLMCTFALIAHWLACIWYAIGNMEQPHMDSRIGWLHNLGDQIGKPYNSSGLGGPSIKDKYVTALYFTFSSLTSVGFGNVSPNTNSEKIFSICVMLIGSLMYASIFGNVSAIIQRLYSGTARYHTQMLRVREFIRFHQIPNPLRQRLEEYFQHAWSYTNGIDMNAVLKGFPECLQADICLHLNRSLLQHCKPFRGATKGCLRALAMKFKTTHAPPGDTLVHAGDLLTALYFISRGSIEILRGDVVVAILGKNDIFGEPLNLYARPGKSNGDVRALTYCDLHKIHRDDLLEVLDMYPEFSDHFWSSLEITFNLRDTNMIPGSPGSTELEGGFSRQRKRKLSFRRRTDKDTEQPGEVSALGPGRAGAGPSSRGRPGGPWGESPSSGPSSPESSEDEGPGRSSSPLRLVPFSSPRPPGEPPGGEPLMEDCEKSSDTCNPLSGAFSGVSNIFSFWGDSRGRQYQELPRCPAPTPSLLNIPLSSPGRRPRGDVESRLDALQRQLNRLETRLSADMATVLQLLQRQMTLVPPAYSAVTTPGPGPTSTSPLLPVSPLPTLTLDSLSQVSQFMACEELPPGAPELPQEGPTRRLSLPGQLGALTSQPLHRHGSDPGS
Method: The activity of a representative disclosed compound, compound 3 (N-(3-(6-((3-morpholinophenyl)amino)-1H-pyrazolo[3,4-d]pyrimidin-4-yl)phenyl)acrylamide), was evaluated in a HERG channel assay. Briefly, the compounds were assessed using the Invitrogen Predictor™ hERG Fluorescence Polarization Assay with excitation at 530 nm and emission at 580 nm using a membrane preparation with overexpressed HERG channels. The compound was tested in a 10-point dose response curves in duplicate and using E-4031 (N-[4-[[1-[2-(6-Methyl-2-pyridinyl)ethyl]-4-piperidinyl]carbonyl]phenyl]methanesulfonamide dihydrochloride), a known HERG channel inhibitor, as an assay positive control. The data are shown in FIG. 6, and the figure showns the average inhibition versus the compound.

[1] = Caco-2 bidirectional permeability assay; assay type: in vitro ADME; conditions: human
Method: (§1) Cell membrane permeability is an important drug characteristic. Typically, a drug candidate is test in a Caco-2 cell transmembrane permeability assay. Compound 3 was tested in a bidirectional permeability assay, and the results are shown in Table V. The data are consistent with the representative compound having good cellular membrane permeability, and the efflux ratio is consistent with active efflux of the drug from cell. The study was conducted using standard techniques known in the art.

Caco-2 cell = test: Caco-2 bidirectional permeability assay; assay type: in vitro ADME; conditions: Caco-2
Method: as §1

C=CC(=O)Nc1cccc(-c2nc(Nc3cccc(N4CCOCC4)c3)nc3[nH]ncc23)c1 [Compound 3, N-(3-(6-((3-morpholinophenyl)amino)-1H-pyrazolo[3,4-d]pyrimidin-4-yl)phenyl)acrylamide]
half-life (Plasma stability assay; human plasma): > 2 h
Compound Remaining (Plasma stability assay; human plasma, 0 min): 100 % of initial amount
Compound Remaining (Plasma stability assay; human plasma, 15 min): 90.1 % of initial amount
Compound Remaining (Plasma stability assay; human plasma, 30 min): 99.6 % of initial amount
Compound Remaining (Plasma stability assay; human plasma, 60 min): 91.3 % of initial amount
Compound Remaining (Plasma stability assay; human plasma, 120 min): 78.6 % of initial amount
half-life (Plasma stability assay; mouse plasma): > 2 h
Compound Remaining (Plasma stability assay; mouse plasma, 0 min): 100 % of initial amount
Compound Remaining (Plasma stability assay; mouse plasma, 15 min): 100 % of initial amount
Compound Remaining (Plasma stability assay; mouse plasma, 30 min): 101 % of initial amount
Compound Remaining (Plasma stability assay; mouse plasma, 60 min): 85.8 % of initial amount
Compound Remaining (Plasma stability assay; mouse plasma, 120 min): 91.7 % of initial amount
half-life (Plasma stability assay; rat plasma): > 2 h
Compound Remaining (Plasma stability assay; rat plasma, 0 min): 100 % of initial amount
Compound Remaining (Plasma stability assay; rat plasma, 15 min): 95.2 % of initial amount
Compound Remaining (Plasma stability assay; rat plasma, 30 min): 92.9 % of initial amount
Compound Remaining (Plasma stability assay; rat plasma, 60 min): 80.2 % of initial amount
Compound Remaining (Plasma stability assay; rat plasma, 120 min): 55.9 % of initial amount
IC50 (BTK): 8 nM
IC50 (HERG channel): > 10000 nM
efflux ratio ([1]; Caco-2): 6
recovery ([1]; Caco-2, Caco-2, A-B, read-out: % Recovery A-B): 41%
recovery ([1]; Caco-2, Caco-2, B-A, read-out: % Recovery B-A): 84%
Papp A→B ([1]; Caco-2, A-B): 5.81 ×10⁻⁶ cm/s
Papp B→A ([1]; Caco-2, B-A): 34.9 ×10⁻⁶ cm/s
Permeability Classification (Caco-2 cell): High
Significant Efflux (Caco-2 cell): Yes
